Publication PMC3842914, “Meleagrin, a New FabI Inhibitor from Penicillium chryosogenum with at Least One Additional Mode of Action” (PLoS ONE, 2013)
In brackets after ≈: the same amount, converted by molar mass.

Experiments:
S. aureus RN4220 (pE194) = assay: Overexpression assay, MIC for vector-containing S. aureus RN4220 (pE194); type: cell-based; details: Staphylococcus aureus, read-out: MIC S. aureus (pE194)
Procedure: (§1) Whole-cell antimicrobial activity was determined by broth microdilution as described previously. The test strains except for S. pneumoniae were grown to mid-log phase in Mueller–Hinton broth and diluted 1,000-fold in the same medium. Cells (10^5/mL) were inoculated into Mueller–Hinton broth and dispensed at 0.2 mL/well into a 96-well microtiter plate. S. pneumoniae was grown in tryptic soy broth supplemented with 5% sheep blood. MICs were determined in triplicate by serial 2-fold dilutions of test compounds. […] Bacterial growth was determined by measuring the absorption at 650 nm by using a microtiter ELISA reader.
(§2) An overexpression assay using S. aureus RN4220, S. aureus RN4220 (pE194), and S. aureus RN4220 (pE194-fabI) was conducted to perform target validation of FabI inhibitors as described previously. Additionally, both fabI- and fabK-overexpressing E. coli were constructed to test a multitarget effect of the compounds. The wild-type fabI gene from the genomic DNA of E. coli W3110 was amplified by PCR by using the primers 5′-[…]-3′ and 5′-[…]-3′. The wild-type fabK gene from the genomic DNA of S. pneumoniae KCTC 5412 was amplified by PCR by using the primers 5′-[…]-3′ and 5′-[…] […]-3′. The resulting products were cloned into the pBAD-TOPO TA expression vector (Invitrogen, Carlsbad, CA, USA) to yield the pBAD-fabI and pBAD-fabK recombinant plasmids, which placed the expression of the genes fabI and fabK, respectively, under the control of the arabinose promoter. Recombinant pBAD-fabI and pBAD-fabK were then introduced into the pump-negative (tolC) E. coli EW1b via electroporation to generate E. coli EW1b (pBAD-fabI) and E. coli EW1b (pBAD-fabK), respectively.

S. aureus RN4220 [1] = assay: MIC by broth microdilution, S. aureus RN4220 (wild type); type: cell-based, Staphylococcus aureus; details: Staphylococcus aureus; S. aureus RN4220 (wild type)
Procedure: as §1

S. aureus FabI = molecular target: T1, S. aureus FabI (Staphylococcus aureus, UniProt Q6GI75); assay: S. aureus FabI enzyme assay (NADPH use at 340 nm, t-o-NAC thioester substrate); type: biochemical
T1 construct: made in house
T1 sequence (Q6GI75 1-256): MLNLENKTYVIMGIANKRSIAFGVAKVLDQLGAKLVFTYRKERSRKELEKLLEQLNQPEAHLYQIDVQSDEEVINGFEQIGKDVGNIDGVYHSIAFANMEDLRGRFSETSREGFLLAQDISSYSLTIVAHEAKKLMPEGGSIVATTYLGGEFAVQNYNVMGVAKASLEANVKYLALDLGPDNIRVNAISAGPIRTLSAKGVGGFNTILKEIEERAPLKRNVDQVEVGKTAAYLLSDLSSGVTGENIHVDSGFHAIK
Description: S. aureus FabI and E. coli FabI enzymes were cloned, overexpressed, and purified as described previously. The wild-type fabK gene was amplified by PCR from genomic DNA obtained from Streptococcus pneumoniae KCTC 5412 by using the primers 5′-[…]-3′ and 5′-[…]-3′, which contained NdeI and XhoI restriction sites, respectively. After the DNA sequence was confirmed, the gene was cloned into the pET22b vector (Novagen, Gibbstown, NJ, USA). The construct was transformed into E. coli BL21 (DE3) for expression following induction with isopropylthiogalactoside. The C-terminal His-tagged protein was purified as described previously. Assays were conducted in half-area, 96-well microtiter plates. The compounds were dissolved in DMSO and evaluated in 100-μL assay mixtures containing components specific for each enzyme (see below). Reduction of the trans-2-octenoyl N-acetylcysteamine (t-o-NAC thioester) substrate analog was measured spectrophotometrically following the utilization of NADH or NADPH at 340 nm at 30°C for the linear period of the assay. S. aureus FabI assays contained 50 mM sodium acetate (pH 6.5), 200 μM t-o-NAC thioester, 200 μM NADPH, and 150 nM S. aureus FabI.
NADH was used as a cofactor rather than NADPH for the E. coli FabI assay. Substrate concentrations used for the Lineweaver–Burk plot were 100, 200, 300, and 400 μM, whereas the concentrations of the cofactor were 100, 200, 400, and 600 μM. The rate of decrease in the amount of NADPH in each reaction was measured with a microtiter enzyme-linked immunosorbent assay (ELISA) reader by using the SOFTmax PRO software (Molecular Devices, Sunnyvale, CA, USA). The inhibitory activity was calculated according to the following formula: % of inhibition = 100× [1− (rate in the presence of compound/rate in the untreated control)]. IC50 values were calculated by fitting the data to a sigmoid equation. An equal volume of DMSO solvent was used for the untreated control. FabK assays contained 100 mM sodium acetate (pH 6.5), 2% glycerol, 200 mM NH4Cl, 50 µM t-o-NAC thioester, 200 µM NADH, and 150 nM S. pneumoniae FabK.

[2] = test system: S. aureus RN4220 (pE194-fabI); assay: Overexpression assay, MIC for fabI-overexpressing S. aureus RN4220 (pE194-fabI); type: cell-based; details: Staphylococcus aureus, read-out: MIC S. aureus (pE194-fabI)
Procedure: as §1, §2

S. pneumoniae KCTC 3932 = assay: Inhibition of macromolecular biosynthesis (radiolabeled precursor incorporation) in S. pneumoniae; type: cell-based, Streptococcus pneumoniae; details: drugs at 2 times the MIC
Procedure: (§3) To monitor the effects of compound 1 on lipid, DNA, RNA, protein, and cell wall biosynthesis, its effects on the incorporation of [1-^14C] acetate (50 mCi/mmol), [2-^14C] thymidine (59.8 mCi/mmol), [U-^14C] uridine (539 mCi/mmol), L-[U-^14C] leucine (306 mCi/mmol) or L-[U-^14C] isoleucine (329 mCi/mmol), and N-acetyl-D-[1-^14C] glucosamine (58.1 mCi/mmol) into S. aureus and S. pneumoniae were measured as described previously. S. aureus was exponentially grown to an A650 of 0.2 in Mueller–Hinton broth. S. pneumoniae was grown in tryptic soy broth supplemented with 5% sheep blood. […] An equal volume of DMSO solvent was added to the untreated control. After incubation with the radiolabeled precursors at 37°C for 1 h, followed by centrifugation, the cell pellets were washed twice with PBS buffer. After acetate incorporation, the total cellular lipids were extracted with chloroform-methanol-water. The incorporated radioactivity in the chloroform phase was measured by scintillation counting. For the other precursors, incorporation was terminated by adding 10% (w/v) TCA and cooling on ice for 20 min. The precipitated material was collected on Whatman GF/C glass microfiber filters, washed with TCA and ethanol, dried, and counted using a scintillation counter. The total counts incorporated at 1 h of incubation without inhibitors ranged from >7,000 for [U-^14C] uridine to <13,000 for [1-^14C] acetate. […] In all experiments, known antibacterial agents were included as positive controls.

S. aureus RN4220 [3] = assay: Inhibition of macromolecular biosynthesis (radiolabeled precursor incorporation) in S. aureus; type: cell-based, Staphylococcus aureus; details: drugs at 2 times the MIC
Procedure: as §3

Compound: Cc1onc(-c2ccccc2)c1C(=O)N[C@@H]1C(=O)N2[C@@H]1SC(C)(C)[C@@H]2C(=O)O [Oxacillin, reference compound]
- MIC (S. aureus RN4220 (pE194)): 0.25 µg/mL (≈ 0.623 µM)
- MIC (S. aureus RN4220 [1]): 0.25 µg/mL (≈ 0.623 µM)
- IC50 (S. aureus FabI): > 100 µM
- MIC [2]: 0.25 µg/mL (≈ 0.623 µM)

Compound: C/C=C/C/C=C/CCC(=O)[C@H]1O[C@H]1C(N)=O [cerulenin, reference compound]
- Inhibition of precursor incorporation, [1-14C] Acetate (S. pneumoniae KCTC 3932): 95%

Compound: O=C(N[C@H](CO)[C@H](O)c1ccc([N+](=O)[O-])cc1)C(Cl)Cl [chlorampenicol, chloramphenicol, reference compound]
- Inhibition of precursor incorporation, L-[U-14C] Isoleucine (S. aureus RN4220 [3]): 74%
- Inhibition of precursor incorporation, L-[U-14C] Isoleucine (S. pneumoniae KCTC 3932): 85%

Compound: CO[C@H]1/C=C/O[C@@]2(C)Oc3c(C)c(O)c4c(O)c(c(/C=N/N5CCN(C)CC5)c(O)c4c3C2=O)NC(=O)/C(C)=C\C=C\[C@H](C)[C@H](O)[C@@H](C)[C@@H](O)[C@@H](C)[C@H](OC(C)=O)[C@@H]1C [rifampin, reference compound]
- Inhibition of precursor incorporation, [U-14C] Uridine (S. aureus RN4220 [3]): 69%
- Inhibition of precursor incorporation, [U-14C] Uridine (S. pneumoniae KCTC 3932): 92%

Compound: CN[C@H](CC(C)C)C(=O)N[C@H]1C(=O)N[C@@H](CC(N)=O)C(=O)N[C@H]2C(=O)N[C@H]3C(=O)N[C@H](C(=O)N[C@H](C(=O)O)c4cc(O)cc(O)c4-c4cc3ccc4O)[C@H](O)c3ccc(c(Cl)c3)Oc3cc2cc(c3O[C@@H]2O[C@H](CO)[C@@H](O)[C@H](O)[C@H]2O[C@H]2C[C@](C)(N)[C@H](O)[C@H](C)O2)Oc2ccc(cc2Cl)[C@H]1O [vancomycin, reference compound]
- Inhibition of precursor incorporation, N-Acetyl-D-[1-14C] Glucosamine (S. aureus RN4220 [3]): 79%
- Inhibition of precursor incorporation, N-Acetyl-D-[1-14C] Glucosamine (S. pneumoniae KCTC 3932): 88%
